{"source": "patent US20050031540A1", "about": "“Visco dye” (priority 2001, published 2005)", "key": {"[1]": {"system": "anterior capsule of the crystalline lens", "assay": "Vital dye staining of the anterior lens capsule to visualise the CCC", "conditions": "absence of a red fundus reflex", "excerpt": "It is possible to use a number of vital dyes already known today, but also such which may become available in the future as the visualising agent. […] These include azophlozin, basic blue, Bismarck brown, basis red, bengal red, brilliant cresyl blue, eosin, fluorescein, gentian violet, indocyanine green, Janus green, methylene green, methylene blue, neutral red and others."}, "[2]": {"system": "corneal endothelial cells", "conditions": "earlier use to stain corneas prior to corneal transplants; cited from earlier work"}}, "data": [{"compound": "brilliant cresyl blue", "values": [{"measurement": "staining of the anterior capsule sufficient to visualise the CCC", "setting": "[1]; dye 1%", "value": "stained the anterior capsule sufficiently to visualise the CCC"}]}, {"compound": "CN(C)c1ccc(C(=C2C=CC(=[N+](C)C)C=C2)c2ccc(N(C)C)cc2)cc1", "note": "[gentian violet]", "values": [{"measurement": "staining of the anterior capsule sufficient to visualise the CCC", "setting": "[1]; dye 2%", "value": "stained the anterior capsule sufficiently to visualise the CCC"}]}, {"compound": "Cc1cc(-c2ccc(/N=N/c3c(S(=O)(=O)O)cc4cc(S(=O)(=O)O)cc(N)c4c3O)c(C)c2)ccc1/N=N/c1c(S(=O)(=O)O)cc2cc(S(=O)(=O)O)cc(N)c2c1O", "note": "[trypan blue]", "values": [{"measurement": "tolerance of corneal endothelium to vital staining, endothelial cell counts", "setting": "[2]", "value": "without a reduction in endothelial cell counts"}, {"measurement": "staining of the anterior capsule sufficient to visualise the CCC", "setting": "[1]; dye 0.1%", "value": "stained the anterior capsule sufficiently to visualise the CCC"}]}, {"compound": "CN(C)c1ccc2nc3ccc(=[N+](C)C)cc-3sc2c1", "note": "[methylene blue]", "values": [{"measurement": "staining of the anterior capsule sufficient to visualise the CCC", "setting": "[1]; dye 5%", "value": "stained the anterior capsule sufficiently to visualise the CCC"}]}]}
